pIC50: −log10 of the molar value. Converted amounts (≈) assume the structure as drawn. The source made the active and inactive calls. No cut-off for these calls is given here.
Tests used:
[1] = test system: Staphylococcus aureus; test: Antibacterial activity against Staphylococcus aureus ATCC 29213 assessed as reduction cell viability after 16 to 20 hrs by CLSI based two-fold serial dilution method; type: functional
[2] = molecular target: Rhodesain (Trypanosoma brucei rhodesiense) (UniProt Q95PM0); test: Inhibition of Trypanosoma brucei rhodesiense C-terminal full length rhodesain expressed in Pichia pastoris using Cbz-PheArg-AMC as substrate preincubated for 5 to 30 mins followed by substrate and measured every 30 sec for 10 mins by fluorescence based assay
[3] = molecular target: Rhodesain (Trypanosoma brucei rhodesiense) (UniProt Q95PM0); test: Inhibition of Trypanosoma brucei rhodesiense C-terminal full length rhodesain expressed in Pichia pastoris at 50 uM using Cbz-PheArg-AMC as substrate measured every 30 sec for 10 mins in presence of 0.005 to 0.025 % of Brij-35 by fluorescence based assay
[4] = molecular target: Rhodesain (Trypanosoma brucei rhodesiense) (UniProt Q95PM0); test: Inhibition of Trypanosoma brucei rhodesiense C-terminal full length rhodesain expressed in Pichia pastoris at 50 uM using Cbz-PheArg-AMC as substrate measured every 30 sec for 10 mins in presence of 4.75 mM DTT by fluorescence based assay
[5] = test system: Bacillus subtilis; test: Antibacterial activity against Bacillus subtilis 168 assessed as reduction cell viability after 16 to 20 hrs by CLSI based two-fold serial dilution method; type: functional
[6] = test system: HeLa; test: Cytotoxicity against human HeLa cells assessed as reduction in cell viability after 24 hrs by resazurin staining based fluorescence assay
[7] = test system: Enterococcus faecium; test: Antibacterial activity against Enterococcus faecium BM4147-1 assessed as reduction cell viability after 16 to 20 hrs by CLSI based two-fold serial dilution method; type: functional
[8] = molecular target: Rhodesain (Trypanosoma brucei rhodesiense, UniProt Q95PM0); test: Inhibition of Trypanosoma brucei rhodesiense C-terminal full length rhodesain expressed in Pichia pastoris using Cbz-PheArg-AMC as substrate measured every 30 sec for 10 mins by fluorescence based assay
Rhodesain, sequence (Q95PM0 whole entry): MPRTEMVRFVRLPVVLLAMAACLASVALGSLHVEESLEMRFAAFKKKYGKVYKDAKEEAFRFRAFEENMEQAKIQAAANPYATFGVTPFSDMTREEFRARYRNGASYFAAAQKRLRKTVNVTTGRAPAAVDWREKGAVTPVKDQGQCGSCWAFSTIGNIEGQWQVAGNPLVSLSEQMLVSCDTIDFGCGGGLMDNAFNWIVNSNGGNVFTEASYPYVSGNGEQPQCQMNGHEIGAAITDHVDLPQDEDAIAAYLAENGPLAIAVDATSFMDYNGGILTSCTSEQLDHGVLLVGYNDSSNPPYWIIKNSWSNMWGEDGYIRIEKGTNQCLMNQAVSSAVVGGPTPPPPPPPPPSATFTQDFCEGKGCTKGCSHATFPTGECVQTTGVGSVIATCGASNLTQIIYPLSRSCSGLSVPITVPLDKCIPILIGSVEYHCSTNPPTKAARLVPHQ

Rhodesain (Trypanosoma brucei rhodesiense), sequence (Q95PM0 1-450): as the sequence (Q95PM0 whole entry) above

Row | Structure (SMILES) | MIC [1] [µM] | inhibition [2] | inhibition [3] | inhibition [4] | MIC [5] [µM] | pIC50 [6] | MIC [7] [µM] | pIC50 [8]
1 | O=C1C(Cc2ccc(O)cc2)=C(Cc2ccc(O)cc2)C(=O)C1(c1ccc(O)cc1)C1(c2ccc(O)cc2)C(=O)C(Cc2ccc(O)cc2)=C(Cc2ccc(O)cc2)C1=O | 13 (≈ 10.4 µg/mL) | Active | Active | Active | 13 (≈ 10.4 µg/mL) | 4.80 | 13 (≈ 10.4 µg/mL) | 4.82
2 | O=c1oc(-c2ccc(O)cc2)cc(Cc2ccc(O)cc2)c1Cc1ccc(O)cc1O | 50 (≈ 20.8 µg/mL) |  |  |  | 50 (≈ 20.8 µg/mL) | 4.08 | 100 (≈ 41.6 µg/mL) | 4.20
3 | O=C1C(Cc2ccc(O)cc2)=C(Cc2ccc(O)cc2)C(=O)C1(c1ccc(O)cc1)c1cc(Cc2c(Cc3ccc(O)cc3)cc(-c3ccc(O)cc3)oc2=O)c(O)cc1O | 3 (≈ 2.44 µg/mL) |  |  |  | 3 (≈ 2.44 µg/mL) | 4.48 | 13 (≈ 10.6 µg/mL) | 4.48

Reference: ChEMBL document CHEMBL4602666, “Nostotrebin 6 Related Cyclopentenediones and δ-Lactones with Broad Activity Spectrum Isolated from the Cultivation Medium of the Cyanobacterium Nostoc sp. CBT1153” (J Nat Prod, 2020)
